{"source": "paper PMC7661129", "about": "“Evaluation of Binding of Rosmarinic Acid with Human Transferrin and Its Impact on the Protein Structure: Targeting Polyphenolic Acid-Induced Protection of Neurodegenerative Disorders” (Oxidative Medicine and Cellular Longevity, 2020)", "key": {"Human transferrin (hTf) [1]": {"molecular_target": "T1, Human transferrin (hTf) (Homo sapiens, UniProt P02787)", "T1 construct": "gene TF", "T1 sequence (P02787 20-698)": "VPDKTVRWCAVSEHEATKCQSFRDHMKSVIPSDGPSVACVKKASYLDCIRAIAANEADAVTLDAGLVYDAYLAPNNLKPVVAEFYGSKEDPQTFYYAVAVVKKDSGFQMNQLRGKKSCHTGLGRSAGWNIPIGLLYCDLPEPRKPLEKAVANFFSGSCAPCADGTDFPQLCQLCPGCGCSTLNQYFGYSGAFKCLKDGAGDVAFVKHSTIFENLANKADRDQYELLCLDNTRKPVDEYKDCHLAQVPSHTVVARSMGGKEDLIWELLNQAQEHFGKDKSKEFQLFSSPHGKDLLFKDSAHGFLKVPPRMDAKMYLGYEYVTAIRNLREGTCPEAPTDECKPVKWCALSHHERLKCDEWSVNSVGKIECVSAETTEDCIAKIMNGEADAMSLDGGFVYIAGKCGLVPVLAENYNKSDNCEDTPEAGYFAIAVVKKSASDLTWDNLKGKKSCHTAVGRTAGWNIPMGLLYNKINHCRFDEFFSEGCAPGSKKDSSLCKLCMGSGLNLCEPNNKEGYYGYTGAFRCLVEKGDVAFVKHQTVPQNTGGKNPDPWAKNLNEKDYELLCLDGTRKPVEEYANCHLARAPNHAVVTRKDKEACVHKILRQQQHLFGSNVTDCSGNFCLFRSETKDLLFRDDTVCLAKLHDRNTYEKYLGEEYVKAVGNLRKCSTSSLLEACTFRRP", "test": "isothermal titration calorimetry (VP-ITC)", "assay_type": "binding", "settings": "25 °C; 20 mM sodium phosphate pH 7.4; four-site fit, first site; large fit error, Ka4 printed negative; unreliable"}, "Human transferrin (hTf) [2]": {"molecular_target": "T1, Human transferrin (hTf)", "test": "intrinsic fluorescence quenching, modified Stern-Volmer", "assay_type": "binding", "settings": "301 K; 20 mM sodium phosphate pH 7.4; n = 1.25; double-log", "excerpt": "intrinsic fluorescence quenching, modified Stern-Volmer on Human transferrin (hTf)"}}}
{"smiles": "O=C(/C=C/c1ccc(O)c(O)c1)O[C@H](Cc1ccc(O)c(O)c1)C(=O)O", "note": "[Rosmarinic acid]", "values": [{"measurement": "Ka1", "setting": "Human transferrin (hTf) [1]", "result": "115000 ± 81000", "unit": "M⁻¹"}, {"measurement": "K (10^7 M^-1)", "setting": "Human transferrin (hTf) [2]", "result": "0.107 × 10^7 M^-1"}]}
